Test results as given in patent publication US10399940B2, “Substituted pyrrolidines and methods of use” (AbbVie S.à.r.l., priority 2016, dated 2019).
Read-outs that look alike come from different tables or passages of the source.

Target: T1, F508delCFTR (Homo sapiens, UniProt P13569, DEL508-508)
T1 construct: expressed in transfected cells; host or cells: CFBE41o- (human lung derived epithelial cell line), doxycycline-inducible expression
Assay: Cell Surface Expression-Horse Radish Peroxidase (CSE-HRP) assay
Type: cell-based
Details: CFBE41o-F508delCFTR-HRP cells; for Maximum % activity (with co-corrector): with co-corrector (2 μM); for Maximum % activity (with co-corrector) / Maximum % activity (without co-corrector): normalized to on-plate positive control, highest concentration 20 μM
Summary of the method: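 Surface F508delCFTR-HRP was read by luminol luminescence after 18–24 h compound exposure at 33 °C, without or with 2 μM co-corrector. Doses were eight 3-fold steps from 20 μM, in doxycycline-induced (0.5 μg/mL, 72 h) CFBE41o- cells. % activity was scaled to the on-plate 2 μM positive control minus DMSO; EC50 came from a variable-slope sigmoid fit.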

[1] = test compound without co-corrector, 18-24 hours at 33° C., read-out: EC50 (without co-corrector)
[2] = with co-corrector (2 μM of 3-[(2R,4R)-4-({[1-(2,2-difluoro-1,3-benzodioxol-5-yl)cyclopropyl]carbonyl}amino)-7-methoxy-3,4-dihydro-2H-chromen-2-yl]benzoic acid), read-out: EC50 (with co-corrector)

T1 sequence (P13569 with tags, fused parts or gaps DEL508-508): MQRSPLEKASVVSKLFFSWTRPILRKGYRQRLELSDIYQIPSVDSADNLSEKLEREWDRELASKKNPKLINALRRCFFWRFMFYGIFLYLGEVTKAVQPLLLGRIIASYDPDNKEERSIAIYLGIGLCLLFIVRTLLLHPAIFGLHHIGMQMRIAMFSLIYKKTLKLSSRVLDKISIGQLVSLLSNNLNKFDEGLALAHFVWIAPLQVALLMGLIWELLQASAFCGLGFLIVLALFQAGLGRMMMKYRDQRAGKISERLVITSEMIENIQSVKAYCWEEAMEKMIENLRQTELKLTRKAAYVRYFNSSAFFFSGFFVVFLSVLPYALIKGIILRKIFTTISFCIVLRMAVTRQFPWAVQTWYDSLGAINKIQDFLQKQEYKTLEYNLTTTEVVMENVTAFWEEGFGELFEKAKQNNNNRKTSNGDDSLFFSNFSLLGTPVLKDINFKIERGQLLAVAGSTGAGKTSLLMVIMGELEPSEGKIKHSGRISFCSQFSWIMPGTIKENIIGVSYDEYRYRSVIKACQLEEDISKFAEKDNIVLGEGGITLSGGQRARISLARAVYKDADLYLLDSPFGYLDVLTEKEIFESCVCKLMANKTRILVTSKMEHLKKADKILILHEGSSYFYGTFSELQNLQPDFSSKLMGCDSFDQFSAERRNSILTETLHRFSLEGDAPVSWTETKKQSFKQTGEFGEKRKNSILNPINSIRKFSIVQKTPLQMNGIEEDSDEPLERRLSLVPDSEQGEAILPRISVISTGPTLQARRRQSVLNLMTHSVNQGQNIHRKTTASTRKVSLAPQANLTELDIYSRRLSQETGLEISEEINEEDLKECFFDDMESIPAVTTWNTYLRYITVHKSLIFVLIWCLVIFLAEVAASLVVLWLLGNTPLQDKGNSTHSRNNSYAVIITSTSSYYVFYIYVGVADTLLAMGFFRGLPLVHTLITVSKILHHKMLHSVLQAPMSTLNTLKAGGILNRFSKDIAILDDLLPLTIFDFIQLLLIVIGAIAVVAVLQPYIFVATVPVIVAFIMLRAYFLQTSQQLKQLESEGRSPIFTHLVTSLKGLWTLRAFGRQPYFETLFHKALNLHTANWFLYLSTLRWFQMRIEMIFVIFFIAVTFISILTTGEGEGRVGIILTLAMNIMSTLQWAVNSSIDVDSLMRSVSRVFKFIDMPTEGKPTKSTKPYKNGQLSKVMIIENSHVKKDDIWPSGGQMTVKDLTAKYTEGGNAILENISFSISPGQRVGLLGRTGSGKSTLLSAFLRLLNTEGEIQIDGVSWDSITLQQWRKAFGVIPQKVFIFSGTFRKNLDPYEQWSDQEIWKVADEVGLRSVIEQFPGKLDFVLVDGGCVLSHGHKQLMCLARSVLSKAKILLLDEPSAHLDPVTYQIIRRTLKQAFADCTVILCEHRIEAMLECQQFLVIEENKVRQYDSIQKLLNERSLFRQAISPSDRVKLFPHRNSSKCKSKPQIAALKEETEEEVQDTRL

Structure (SMILES) | EC50 [1] [nM] | EC50 [2] [nM] | Maximum % activity (with co-corrector) | Maximum % activity (without co-corrector)
CC(C)(C)[C@@H]1C(OCc2cc(Cl)ccc2Cl)[C@@H](c2ccccc2)N(C(=O)CC2CCCC2)[C@H]1C(=O)O (mixture of isomers) [Example 1, rac-(2R,3S,5R)-3-tert-butyl-1-(cyclopentylacetyl)-4-[(2,5-dichlorophenyl)methoxy]-5-phenylpyrrolidine-2-carboxylic acid] | 1000 to 10000 | 1000 to 10000 | +++ (≥350) | + (<100)
COc1ncc(C(F)(F)F)cc1CO[C@H]1[C@H](C(C)(C)C)[C@@H](C(=O)O)N(C(=O)[C@@H]2CCCO2)[C@H]1c1ccccc1C [Example 129, (2S,3R,4S,5S)-3-tert-butyl-4-{[2-methoxy-5-(trifluoromethyl)pyridin-3-yl]methoxy}-5-(2-methylphenyl)-1-[(2S)-oxolane-2-carbonyl]pyrrolidine-2-carboxylic acid] | 1000 to 10000 | < 1000 | +++ (≥350) | ++ (≥100 and <200)
COc1ncc(C(F)(F)F)cc1CO[C@H]1[C@H](C(C)(C)C)[C@@H](C(=O)O)N(C(=O)OC(C)C)[C@H]1c1cccc(Br)c1 [Example 124, (2S,3R,4S,5S)-5-(3-bromophenyl)-3-tert-butyl-4-{[2-methoxy-5-(trifluoromethyl)pyridin-3-yl]methoxy}-1-{[(propan-2-yl)oxy]carbonyl}pyrrolidine-2-carboxylic acid] | 1000 to 10000 | < 1000 | ++ (≥150 and <350) | + (<100)
COc1ccc(C(F)(F)F)cc1CO[C@H]1[C@H](C(C)(C)C)[C@@H](C(=O)O)N(C(=O)OC(C)C)[C@H]1c1cccnc1OC(C)C [Example 78, (2S,3R,4S,5S)-3-tert-butyl-4-{[2-methoxy-5-(trifluoromethyl)phenyl]methoxy}-1-{[(propan-2-yl)oxy]carbonyl}-5-{2-[(propan-2-yl)oxy]pyridin-3-yl}pyrrolidine-2-carboxylic acid] | 1000 to 10000 | 1000 to 10000 | +++ (≥350) | ++ (≥100 and <200)
COc1ncc(C2CCCC2)cc1CO[C@H]1[C@H](C(C)(C)C)[C@@H](C(=O)O)N(C(=O)C2CCCCC2)[C@H]1c1ccccc1 [Example 54, (2S,3R,4S,5S)-3-tert-butyl-1-(cyclohexanecarbonyl)-4-[(5-cyclopentyl-2-methoxypyridin-3-yl)methoxy]-5-phenylpyrrolidine-2-carboxylic acid] | < 1000 | < 1000 | +++ (≥350) | ++ (≥100 and <200)
COc1ccc(C(F)(F)F)cc1CO[C@@H]1[C@@H](C(C)(C)C)[C@H](C(=O)O)N(C(=O)C2CCCCC2)[C@@H]1c1ccccc1 [Example 18, (2R,3S,4R,5R)-3-tert-butyl-1-(cyclohexanecarbonyl)-4-{[2-methoxy-5-(trifluoromethyl)phenyl]methoxy}-5-phenylpyrrolidine-2-carboxylic acid] | > 10000 | 1000 to 10000 | ++ (≥150 and <350) | + (<100)
COc1ccc(C(C)(C)C)cc1CO[C@H]1[C@H](C(C)(C)C)[C@@H](C(=O)O)N(C(=O)C2CCCCC2)[C@H]1c1ccccc1F [Example 50, (2S,3R,4S,5S)-3-tert-butyl-4-[(5-tert-butyl-2-methoxyphenyl)methoxy]-1-(cyclohexanecarbonyl)-5-(2-fluorophenyl)pyrrolidine-2-carboxylic acid] | < 1000 | < 1000 | +++ (≥350) | +++ (≥200)
COc1ncnc(OC)c1CO[C@@H]1[C@@H](C(C)(C)C)[C@H](C(=O)O)N(C(=O)C2CCCCC2)[C@@H]1c1ccccc1 (racemic) [Example 10, rac-(2R,3S,4R,5R)-3-tert-butyl-1-(cyclohexanecarbonyl)-4-[(4,6-dimethoxypyrimidin-5-yl)methoxy]-5-phenylpyrrolidine-2-carboxylic acid] | 1000 to 10000 | 1000 to 10000 | +++ (≥350) | +++ (≥200)

Continued, values first:

EC50 [1] [nM] | EC50 [2] [nM] | Maximum % activity (with co-corrector) | Maximum % activity (without co-corrector) | Structure (SMILES)
1000 to 10000 | 1000 to 10000 | +++ (≥350) | ++ (≥100 and <200) | COc1nc2c(C)cc(C)cc2cc1CO[C@H]1[C@H](C(C)(C)C)[C@@H](C(=O)O)N(C(=O)[C@@H]2CCCCO2)[C@H]1c1ccccc1C [Example 242, (2S,3R,4S,5S)-3-tert-butyl-4-[(2-methoxy-6,8-dimethylquinolin-3-yl)methoxy]-5-(2-methylphenyl)-1-[(2S)-oxane-2-carbonyl]pyrrolidine-2-carboxylic acid]
1000 to 10000 | < 1000 | +++ (≥350) | ++ (≥100 and <200) | COc1ccccc1[C@H]1[C@@H](OCc2cc(C3CCC3)cnc2OC)[C@H](C(C)(C)C)[C@@H](C(=O)O)N1C(=O)[C@@H]1CCCCO1 [Example 239, (2S,3R,4S,5S)-3-tert-butyl-4-[(5-cyclobutyl-2-methoxypyridin-3-yl)methoxy]-5-(2-methoxyphenyl)-1-[(2S)-oxane-2-carbonyl]pyrrolidine-2-carboxylic acid]
1000 to 10000 | 1000 to 10000 | +++ (≥350) | +++ (≥200) | COc1ncc(C(F)(F)F)cc1CO[C@H]1[C@H](C(C)(C)C)[C@@H](C(=O)O)N(C(=O)[C@@H]2CCCCO2)[C@H]1c1ccccc1-c1ccc(C(F)(F)F)nc1 [Example 208, (2S,3R,4S,5S)-3-tert-butyl-4-{[2-methoxy-5-(trifluoromethyl)pyridin-3-yl]methoxy}-1-[(2S)-oxane-2-carbonyl]-5-{2-[6-(trifluoromethyl)pyridin-3-yl]phenyl}pyrrolidine-2-carboxylic acid]
< 1000 | < 1000 | +++ (≥350) | +++ (≥200) | [2H]C([2H])(O[C@H]1[C@H](C(C)(C)C)[C@@H](C(=O)O)N(C(=O)[C@@H]2CCCCO2)[C@H]1c1ccccc1C)c1cc(C(C)(C)C)ccc1OC [Example 235, (2S,3R,4S,5S)-3-tert-butyl-4-{[(5-tert-butyl-2-methoxyphenyl)(^2H2)methyl]oxy}-5-(2-methylphenyl)-1-[(2S)-oxane-2-carbonyl]pyrrolidine-2-carboxylic acid]
1000 to 10000 | < 1000 | +++ (≥350) | ++ (≥100 and <200) | COc1ncc(C(F)(F)F)cc1CO[C@H]1[C@H](C(C)(C)C)[C@@H](C(=O)O)N(C(=O)[C@@H]2CCCO2)[C@H]1c1ccccc1C(F)(F)F [Example 156, (2S,3R,4S,5S)-3-tert-butyl-4-{[2-methoxy-5-(trifluoromethyl)pyridin-3-yl]methoxy}-1-[(2S)-oxolane-2-carbonyl]-5-[2-(trifluoromethyl)phenyl]pyrrolidine-2-carboxylic acid]
